Values of other authors, collected in patent US7935702B2, “Substituted biaryl quinolin-4-ylamine analogues” (Neurogen Corporation, priority 2004, dated 2011).

Target: VR (Homo sapiens, UniProt Q8NER1)
Details: background; typical value; cited from earlier work

VR, sequence (Q8NER1 whole entry): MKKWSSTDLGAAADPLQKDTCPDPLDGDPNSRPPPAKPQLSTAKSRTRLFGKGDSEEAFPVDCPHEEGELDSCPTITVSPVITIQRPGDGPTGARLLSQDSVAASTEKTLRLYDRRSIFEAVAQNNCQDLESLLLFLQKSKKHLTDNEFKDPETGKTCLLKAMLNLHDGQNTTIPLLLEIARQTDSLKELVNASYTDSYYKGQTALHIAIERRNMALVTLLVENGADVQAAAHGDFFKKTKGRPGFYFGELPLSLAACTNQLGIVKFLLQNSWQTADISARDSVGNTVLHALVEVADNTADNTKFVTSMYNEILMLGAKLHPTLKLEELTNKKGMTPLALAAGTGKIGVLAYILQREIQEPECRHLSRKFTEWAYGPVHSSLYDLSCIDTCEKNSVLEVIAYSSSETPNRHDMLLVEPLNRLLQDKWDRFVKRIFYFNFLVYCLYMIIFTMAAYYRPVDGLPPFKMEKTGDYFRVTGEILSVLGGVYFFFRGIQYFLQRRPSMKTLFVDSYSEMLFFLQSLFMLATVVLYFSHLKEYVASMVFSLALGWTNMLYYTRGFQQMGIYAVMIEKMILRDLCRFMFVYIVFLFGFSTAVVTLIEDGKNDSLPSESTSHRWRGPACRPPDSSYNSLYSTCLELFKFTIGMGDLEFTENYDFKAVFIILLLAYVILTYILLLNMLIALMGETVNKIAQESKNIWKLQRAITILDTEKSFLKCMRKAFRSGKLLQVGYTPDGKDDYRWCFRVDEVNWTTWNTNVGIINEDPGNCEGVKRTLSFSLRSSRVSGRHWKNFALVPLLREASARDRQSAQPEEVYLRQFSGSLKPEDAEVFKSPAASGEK

## Cl.Cl.Cl.Cl.Cl.Cl.N.N.N.N.N.N.N.N.N.N.N.N.N.N.[O-2].[O-2].[Ru+3].[Ru+3].[Ru+4] [ruthenium red]
  Ki: ≥ 140 µM
